According to paper PMC12415777, “Dose-dependent modulation of hepatic cytochrome P450 enzymes by tenvermectin: implications for medication safety and combination therapy” (Frontiers in Veterinary Science, 2025):

How the values were obtained:
Format in all cases: biochemical
CYP3A1/2 = tested on: T1, CYP3A1/2; test: probe substrate conversion in rat liver microsomes, HPLC-MS/MS; settings: testosterone at about Km, NADPH regeneration system, 0.05 M Tris-HCl pH 7.4, 30 min; read-out: IC 50 / Positive control
T1 construct: native enzymes in rat liver microsomes; testosterone 6beta-hydroxylation read-out
From the text: probe substrate conversion in rat liver microsomes, HPLC-MS/MS on CYP3A1/2

CYP2D2 = biological target: T2, CYP2D2 (Rattus norvegicus, UniProt P10634); test: Michaelis-Menten fit in rat liver microsomes, HPLC-fluorescence of dextrorphan; settings: NADPH regeneration system, 0.05 M Tris-HCl pH 7.4, 30 min
T2 construct: gene Cyp2d26; native enzyme in rat liver microsomes; dextromethorphan to dextrorphan read-out
T2 sequence (P10634 1-500): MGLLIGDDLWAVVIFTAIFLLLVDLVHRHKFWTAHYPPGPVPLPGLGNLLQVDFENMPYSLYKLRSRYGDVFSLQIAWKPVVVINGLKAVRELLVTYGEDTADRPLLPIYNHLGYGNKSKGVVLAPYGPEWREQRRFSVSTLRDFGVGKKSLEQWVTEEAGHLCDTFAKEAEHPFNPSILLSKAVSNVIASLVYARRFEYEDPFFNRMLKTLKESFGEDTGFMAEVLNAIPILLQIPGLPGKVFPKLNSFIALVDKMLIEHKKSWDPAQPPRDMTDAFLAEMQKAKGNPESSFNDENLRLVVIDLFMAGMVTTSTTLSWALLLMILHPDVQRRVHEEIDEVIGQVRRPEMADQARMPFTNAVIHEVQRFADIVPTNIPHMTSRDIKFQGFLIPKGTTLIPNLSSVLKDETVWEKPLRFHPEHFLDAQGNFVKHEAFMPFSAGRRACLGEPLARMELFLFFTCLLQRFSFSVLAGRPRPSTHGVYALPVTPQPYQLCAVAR

CYP1A1/2 = tested on: T3, CYP1A1/2; test: probe substrate conversion in rat liver microsomes, HPLC-fluorescence; settings: ethoxyresorufin at about Km, NADPH regeneration system, 0.05 M Tris-HCl pH 7.4, 15 min; read-out: IC 50 / Positive control
T3 construct: native enzymes in rat liver microsomes; ethoxyresorufin O-deethylation (EROD) read-out
From the text: probe substrate conversion in rat liver microsomes, HPLC-fluorescence on CYP1A1/2

CYP2B1 [1] = biological target: T4, CYP2B1 (Rattus norvegicus, UniProt P00176); test: as above; settings: benzyloxyresorufin at about Km, 5 μM α-BNF added to block CYP1A1/2, NADPH regeneration system, 0.05 M Tris-HCl pH 7.4, 15 min; read-out: IC 50 / Positive control
T4 construct: native enzyme in rat liver microsomes; benzyloxyresorufin O-dealkylation (BROD) read-out
T4 sequence (P00176 1-491): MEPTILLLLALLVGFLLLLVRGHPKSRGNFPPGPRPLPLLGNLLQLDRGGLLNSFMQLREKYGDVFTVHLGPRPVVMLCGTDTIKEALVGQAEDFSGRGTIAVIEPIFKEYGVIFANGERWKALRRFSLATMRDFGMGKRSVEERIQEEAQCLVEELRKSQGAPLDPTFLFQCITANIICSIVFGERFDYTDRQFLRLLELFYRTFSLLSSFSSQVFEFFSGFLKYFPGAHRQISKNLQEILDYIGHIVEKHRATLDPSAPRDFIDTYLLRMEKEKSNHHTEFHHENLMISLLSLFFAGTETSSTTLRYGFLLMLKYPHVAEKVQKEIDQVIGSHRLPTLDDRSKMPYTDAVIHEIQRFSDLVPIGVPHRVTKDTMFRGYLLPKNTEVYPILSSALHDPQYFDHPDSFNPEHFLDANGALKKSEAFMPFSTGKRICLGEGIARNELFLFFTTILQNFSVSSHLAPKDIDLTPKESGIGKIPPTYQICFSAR
From the text: probe substrate conversion in rat liver microsomes, HPLC-fluorescence on CYP2B1

CYP2B1 [2] = biological target: T4, CYP2B1; test: Michaelis-Menten fit in rat liver microsomes, HPLC-fluorescence of resorufin; settings: NADPH regeneration system, 0.05 M Tris-HCl pH 7.4, 15 min, 5 μM α-BNF added to block CYP1A1/2

CC(=O)N1CCN(c2ccc(OCC3COC(Cn4ccnc4)(c4ccc(Cl)cc4Cl)O3)cc2)CC1 (centres unmarked) [KCZ]
IC50 (CYP3A1/2): 470 nM

COc1ccc2c(c1)[C@]13CCCC[C@@H]1[C@H](C2)N(C)CC3 [DOM]
Km (CYP2D2): (D) dextromethorphan (DOM) (CYP2D2)

O=c1cc(-c2ccccc2)oc2c1ccc1ccccc12 [α-BNF]
IC50 (CYP1A1/2): 1820 nM

CC(C)(C(=O)c1cccnc1)c1cccnc1 [MTY]
IC50 (CYP2B1 [1]): 4310 nM

O=c1ccc2nc3ccc(OCc4ccccc4)cc3oc-2c1 [BR]
Km (CYP2B1 [2]): (B) benzyloxyresorufin (BR) (CYP2B1)
